# In patent publication EP4667467A1, “PROTAC DEGRADERS OF MLLT1 AND/OR MLLT3” (Dark Blue Therapeutics Ltd, priority 2024, dated 2025):
# Molecular target: T1, MLLT1 (Homo sapiens, UniProt Q03111)
# T1 construct: endogenous in cells; host or cells: MV4-11 (ATCC CRL-9591)
# T1 sequence (Q03111 1-559): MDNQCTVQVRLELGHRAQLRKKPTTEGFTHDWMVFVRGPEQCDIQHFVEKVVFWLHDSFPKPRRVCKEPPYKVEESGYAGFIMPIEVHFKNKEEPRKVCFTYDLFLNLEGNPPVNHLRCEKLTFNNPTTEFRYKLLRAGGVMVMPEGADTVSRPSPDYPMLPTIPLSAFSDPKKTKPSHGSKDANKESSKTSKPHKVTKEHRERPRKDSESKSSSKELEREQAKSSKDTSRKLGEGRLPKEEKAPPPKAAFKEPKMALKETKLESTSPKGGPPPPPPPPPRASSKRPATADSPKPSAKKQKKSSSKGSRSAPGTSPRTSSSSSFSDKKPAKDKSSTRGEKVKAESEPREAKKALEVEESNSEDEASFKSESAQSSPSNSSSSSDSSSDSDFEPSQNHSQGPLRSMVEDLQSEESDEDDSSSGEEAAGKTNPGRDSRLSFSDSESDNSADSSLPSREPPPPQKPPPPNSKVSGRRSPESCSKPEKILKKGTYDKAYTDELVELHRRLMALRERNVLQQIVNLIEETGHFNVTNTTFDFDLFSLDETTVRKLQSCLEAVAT
# Experiment: MLLT1 Degradation Assay (JESS automated chemiluminescent detection, MV4-11 cells)
# Format: cell-based
# Details: 24h, with respect to DMSO control; for MLLT1 % Degradation @ 0.01 µM: 0.01 µM (10 nM) test compound; for MLLT1 % Degradation @ 0.1 µM: 0.1 µM (100 nM) test compound; for MLLT 1 % Degradation @ 1 µM: 1 µM (1000 nM) test compound
# Procedure, shortened: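 MV4-11 cells were treated for 24 h at 37 °C, 5% CO2 with compound at 1000, 100 and 10 nM (0.1% DMSO). MLLT1 was quantified by automated capillary chemiluminescent immunodetection (JESS). Band peak areas were expressed as % degradation relative to DMSO control.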
MLLT1 % Degradation @ 0.01 µM,MLLT1 % Degradation @ 0.1 µM,MLLT 1 % Degradation @ 1 µM,Compound
A (Category A: A ≥ 75% degradation),A (Category A: A ≥ 75% degradation),A (Category A: A ≥ 75% degradation),"CN1CCC[C@@H]1c1cc2cnc(NC(=O)c3ccc(CCCCC#Cc4cccc(C(=O)N[C@H]5CCC(=O)NC5=O)n4)cc3)cc2[nH]1 [Example 7, N-((S)-2,6-dioxopiperidin-3-yl)-6-(6-(4-((2-((R)-1-methylpyrrolidin-2-yl)-1H-pyrrolo[3,2-c]pyridin-6-yl)carbamoyl)phenyl)hex-1-yn-1-yl)picolinamide]"
A (Category A: A ≥ 75% degradation),A (Category A: A ≥ 75% degradation),A (Category A: A ≥ 75% degradation),"CN1CCC[C@@H]1c1cc2cnc(NC(=O)c3ccc(CCCCC#Cc4cccc5c4CN(C4CCC(=O)NC4=O)C5=O)cc3)cc2[nH]1 (stereo partly drawn) [Example 8, 4-(6-(2-(2,6-dioxopiperidin-3-yl)-1-oxoisoindolin-4-yl)hex-5-yn-1-yl)-N-(2-((R)-1-methylpyrrolidin-2-yl)-1H-pyrrolo[3,2-c]pyridin-6-yl)benzamide]"
A (Category A: A ≥ 75% degradation),A (Category A: A ≥ 75% degradation),A (Category A: A ≥ 75% degradation),"CN1CCC[C@@H]1c1cc2cnc(NC(=O)c3ccc(N4CCC(C5CCN(c6cccc7c6CN(C6CCC(=O)NC6=O)C7=O)CC5)CC4)nc3)cc2[nH]1 (stereo partly drawn) [Example 75, 6-(1'-(2-(2,6-dioxopiperidin-3-yl)-1-oxoisoindolin-4-yl)-[4,4'-bipiperidin]-1-yl)-N-(2-((R)-1-methylpyrrolidin-2-yl)-1H-pyrrolo[3,2-c]pyridin-6-yl)nicotinamide]"
A (Category A: A ≥ 75% degradation),A (Category A: A ≥ 75% degradation),A (Category A: A ≥ 75% degradation),"CN1CCC[C@@H]1c1cc2cnc(NC(=O)c3ccc(-c4cnn(CCCC5CCN(c6cccc7c6CN(C6CCC(=O)NC6=O)C7=O)CC5)c4)cc3)cc2[nH]1 (stereo partly drawn) [Example 35, 4-[1-(3-{1-[2-(2,6-dioxopiperidin-3-yl)-1-oxo-3H-isoindol-4-yl]piperidin-4-yl}propyl)pyrazol-4-yl]-N-{2-[(2R)-1-methylpyrrolidin-2-yl]-1H-pyrrolo[3,2-c]pyridin-6-yl}benzamide]"
A (Category A: A ≥ 75% degradation),A (Category A: A ≥ 75% degradation),A (Category A: A ≥ 75% degradation),"CN1CCC[C@@H]1c1cc2cnc(NC(=O)c3ccc(OCCCC#Cc4cccc5c4CN(C4CCC(=O)NC4=O)C5=O)cc3)cc2[nH]1 (stereo partly drawn) [Example 56, 4-((5-(2-(2,6-dioxopiperidin-3-yl)-1-oxoisoindolin-4-yl)pent-4-yn-1-yl)oxy)-N-(2-((R)-1-methylpyrrolidin-2-yl)-1H-pyrrolo[3,2-c]pyridin-6-yl)benzamide]"

Compound,MLLT1 % Degradation @ 0.01 µM,MLLT1 % Degradation @ 0.1 µM,MLLT 1 % Degradation @ 1 µM
"CN1CCC[C@@H]1c1cc2cnc(NC(=O)N3CCC(CCC#Cc4cccc5c4CN(C4CCC(=O)NC4=O)C5=O)CC3)cc2[nH]1 (stereo partly drawn) [Example 1, 4-(4-(2-(2,6-dioxopiperidin-3-yl)-1-oxoisoindolin-4-yl)but-3-yn-1-yl)-N-(2-((R)-1-methylpyrrolidin-2-yl)-1H-pyrrolo[3,2-c]pyridin-6-yl)piperidine-1-carboxamide]",C (Category C: 25% ≤ C < 50% degradation),C (Category C: 25% ≤ C < 50% degradation),C (Category C: 25% ≤ C < 50% degradation)
"CCN1CCC[C@@H]1c1cc2cnc(NC(=O)c3ccc(CCCCC#Cc4cccc5c4CN(C4CCC(=O)NC4=O)C5=O)nc3)cc2[nH]1 (stereo partly drawn) [Example 74, 6-(6-(2-(2,6-dioxopiperidin-3-yl)-1-oxoisoindolin-4-yl)hex-5-yn-1-yl)-N-(2-((R)-1-ethylpyrrolidin-2-yl)-1H-pyrrolo [3,2-c]pyridin-6-yl) nicotinamide]",B (Category B: 50% ≤ B < 75% degradation),B (Category B: 50% ≤ B < 75% degradation),B (Category B: 50% ≤ B < 75% degradation)
"CN1CCC[C@@H]1c1cc2cnc(NC(=O)c3ccc(N4CCC(N5CCN(c6cccc7c6C(=O)N(C6CCC(=O)NC6=O)C7=O)CC5)CC4)nc3)cc2[nH]1 (stereo partly drawn) [Example 64, 6-(4-(4-(2-(2,6-dioxopiperidin-3-yl)-1,3-dioxoisoindolin-4-yl)piperazin-1-yl)piperidin-1-yl)-N-(2-((R)-1-methylpyrrolidin-2-yl)-1H-pyrrolo[3,2-c]pyridin-6-yl)nicotinamide]",B (Category B: 50% ≤ B < 75% degradation),B (Category B: 50% ≤ B < 75% degradation),A (Category A: A ≥ 75% degradation)
"CN1CCC[C@@H]1c1cc2cnc(NC(=O)c3ccc(N4CCC(CC#Cc5cccc6c5CN(C5CCC(=O)NC5=O)C6=O)CC4)nc3)cc2[nH]1 (stereo partly drawn) [Example 16, 6-(4-(3-(2-(2,6-dioxopiperidin-3-yl)-1-oxoisoindolin-4-yl)prop-2-yn-1-yl)piperidin-1-yl)-N-(2-((R)-1-methylpyrrolidin-2-yl)-1H-pyrrolo[3,2-c]pyridin-6-yl)nicotinamide]",A (Category A: A ≥ 75% degradation),A (Category A: A ≥ 75% degradation),B (Category B: 50% ≤ B < 75% degradation)
"CCN1CCC[C@@H]1c1cc2cnc(NC(=O)c3ccc(N4CCC(CC#Cc5cccc6c5CN(C5CCC(=O)NC5=O)C6=O)CC4)nc3)cc2[nH]1 (stereo partly drawn) [Example 73, 6-(4-(3-(2-(2,6-dioxopiperidin-3-yl)-1-oxoisoindolin-4-yl)prop-2-yn-1-yl)piperidin-1-yl)-N-(2-((R)-1-ethylpyrrolidin-2-yl)-1H-pyrrolo[3,2-c]pyridin-6-yl)nicotinamide]",B (Category B: 50% ≤ B < 75% degradation),A (Category A: A ≥ 75% degradation),B (Category B: 50% ≤ B < 75% degradation)
"CN1CCC[C@@H]1c1cc2cnc(NC(=O)CCCC3CCN(c4cccc5c4C(=O)N(C4CCC(=O)NC4=O)C5=O)CC3)cc2[nH]1 (stereo partly drawn) [Example 41, 4-(1-(2-(2,6-dioxopiperidin-3-yl)-1,3-dioxoisoindolin-4-yl)piperidin-4-yl)-N-(2-((R)-1-methylpyrrolidin-2-yl)-1H-pyrrolo[3,2-c]pyridin-6-yl)butanamide]",B (Category B: 50% ≤ B < 75% degradation),B (Category B: 50% ≤ B < 75% degradation),A (Category A: A ≥ 75% degradation)
"CN1CCC[C@@H]1c1[nH]c2cc(NC(=O)c3ccc(CCCCC#Cc4cccc5c4CN(C4CCC(=O)NC4=O)C5=O)nc3)ncc2c1Cl (stereo partly drawn) [Example 71, N-(3-chloro-2-((R)-1-methylpyrrolidin-2-yl)-1H-pyrrolo[3,2-c]pyridin-6-yl)-6-(6-(2-(2,6-dioxopiperidin-3-yl)-1-oxoisoindolin-4-yl)hex-5-yn-1-yl) nicotinamide]",A (Category A: A ≥ 75% degradation),A (Category A: A ≥ 75% degradation),B (Category B: 50% ≤ B < 75% degradation)
"CN1CCC[C@@H]1c1cc2cnc(NC(=O)c3ccc(CCC#Cc4cccc5c4CN(C4CCC(=O)NC4=O)C5=O)cn3)cc2[nH]1 (stereo partly drawn) [Example 49, 5-(4-(2-(2,6-dioxopiperidin-3-yl)-1-oxoisoindolin-4-yl)but-3-yn-1-yl)-N-(2-((R)-1-methylpyrrolidin-2-yl)-1H-pyrrolo[3,2-c]pyridin-6-yl)picolinamide]",D (Category D: D < 25% degradation),D (Category D: D < 25% degradation),C (Category C: 25% ≤ C < 50% degradation)
"CN1CCC[C@@H]1c1cc2cnc(NC(=O)c3ccc(CC4CCN(c5cccc6c5C(=O)N(C5CCC(=O)NC5=O)C6=O)CC4)cc3)cc2[nH]1 (stereo partly drawn) [Example 3, 4-((1-(2-(2,6-dioxopiperidin-3-yl)-1,3-dioxoisoindolin-4-yl)piperidin-4-yl)methyl)-N-(2-((R)-1-methylpyrrolidin-2-yl)-1H-pyrrolo[3,2-c]pyridin-6-yl)benzamide]",C (Category C: 25% ≤ C < 50% degradation),A (Category A: A ≥ 75% degradation),A (Category A: A ≥ 75% degradation)
